Test results as given in publication PMC3937211, “Serine Carboxypeptidase SCPEP1 and Cathepsin A Play Complementary Roles in Regulation of Vasoconstriction via Inactivation of Endothelin-1” (PLoS Genetics, 2014).
No end group written: not given here.

Key:
[1] = tested on: mesenteric arteries; assay: Vessel reactivity ex vivo; set-up: species or system mouse; details: isolated mesenteric arteries; WT, Scpep1^−/−, CathA^S190A, DD; drugs added extraluminally
Description: Vessel reactivity ex vivo was analyzed as described, [40]. Briefly, male mice were sacrificed at five months and their mesenteric arteries were isolated and mounted onto glass capillaries in an artereograph chamber filled with cold oxygenated Krebs solution (118.6 mM NaCl, 4.7 mM KCl, 1.2 mM KH2PO4, 1.2 mM MgSO4, 25.1 mM NaHCO3, 26 µM EDTA, 0.18% glucose, 2.5 mM CaCl2). The arteries were constantly perfused intraluminally with Krebs solution at 30 mmHg. After 45 minutes of equilibration vascular reactivity was measured in response to Norepinephrine (Sigma A-0937, 10^−9–10^−5 M), Acetylcholine (Sigma A-6625, 10^−9–10^−4 M), Sodium Nitroprusside (Calbiochem 56538, 10^−9–10^−4 M), Endothelin-1 (American Peptide Company 88-1-10, 10^−11–10^−8 M) and AI, (American Peptide Company 12-1-10, 10^−8–10^−4 M). Drugs were added extraluminally with a 30 min washout period in between each drug, during which the arteries were able to re-equilibrate to a baseline. To test vasodilatation arteries were pre-contracted with NE to 70% of their equilibration diameter. At least 3 concentration response curves were conducted for each vessel and at least 6 animals were studied for each genotype.

[2] = tested on: rats; details: induced by monocrotaline in rats; ref [33]; cited from earlier work
Text: The anti-hypertensive effect of retinoic acid tre ...

[3] = tested on: MLC-2 phosphorylation in AVSMC (ETR-A, ETR-B); assay: Myosin light chain 2 phosphorylation by Western blot; format: cell-based, mouse; details: WT AVSMC, 30 min pre-treatment with 2 µM antagonist, then 5 min 100 nM ET-1, 3 independent experiments
Text: To verify at the molecular level if AVSMC from CathA^S190A/Scpep1^−/− mice have increased reactivity to ET-1, we studied intracellular signalling events in these cells in response to ET-1. ET-1 interacts with G-protein-associated endothelin type A (ETR-A) and type B (ETR-B) receptors on the surface of AVSMC. Activation of the receptors induces phospholipase C and increases the intracellular Ca^2+ level leading to activation of myosin light chain kinase that phosphorylates myosin light chain (MLC) [21]–[24]. This causes contraction of myosin filaments and shrinkage of the cells. We therefore, compared the level of MLC phosphorylation in AVSMC before or after treatment with ET-1 for the 4 strains of mice. AVSMC cultured overnight in serum-free medium were treated with or without 100 nM ET-1, harvested and analyzed by Western blot using antibodies against MLC-2 phosphorylated at Thr^18 and Ser^19 residues or against total MLC protein.
Figure 5 Cultured AVSMC from mice with combined CathA/Scpep1 deficiency show increased reactivity to ET-1. […] Total protein extracts were analyzed by Western blotting using antibodies specific for phosphorylated (pThr^18/Ser^19-MLC) and total MLC-2 protein. […] Total protein extracts were analyzed by Western blotting using antibodies specific for phosphorylated and total MLC-2 protein. […]

[4] = product of ET-1 cleavage by CathA in vitro; ref [13], [14]; cited from earlier work
Text: The bioavailability and potency of AII and ET-1 can be regulated through many factors such as alteration of receptor density and affinity, up- and down-regulation of peptide synthesis or release, enzymatic activation (ACE and ACE2 for AII, ECE and MMP-2 for ET-1 [8]), or degradation (neutral endopeptidase NEP for ET-1 [9]–[11]). Previously we have shown that circulating ET-1 is inactivated by lysosomal carboxypeptidase, cathepsin A (CathA) widely distributed in mammalian tissues (reviewed in [12]). The majority of CathA in the cell is found in the lysosome but significant pool of the e ...

CC(=O)OCC[N+](C)(C)C [ACh, acetylcholine]
differences in vessel reactivity between the four groups of mice [1]: no differences

NC[C@H](O)c1ccc(O)c(O)c1 [NE, norepinephrine]
differences in vessel reactivity between the four groups of mice [1]: no differences

CC1=C(/C=C/C(C)=C/C=C/C(C)=C/C(=O)O)C(C)(C)CCC1 [all-trans retinoic acid]
effect on pulmonary hypertension [2]: inhibit pulmonary hypertension

BQ788
effect on ET-1-induced MLC-2 phosphorylation [3]: blocked

angiotensin I (DRVYIHPFHL; Angiotensin-1; UniProt P01019 25-34, looked up) [AI, precursor of vasoconstrictive peptide AII; American Peptide Company 12-1-10]
differences in vessel reactivity between the four groups of mice [1]: no differences

des-Trp21-endothelin-1 (CSCSSLMDKECVYFCHLDII; ends and bridges not checked; cysteine pairing not given here; UniProt P05305 53-72, looked up, fragment)
biological activity [4]: biologically inactive
